From the SangsterLogP compilation

Row | logP | SMILES
1 | 1.4 | CS(=O)c1nnnn1-c1ccc([N+](=O)[O-])cc1 (stereo unspecified)
2 | 2.5 | Cc1ccc(-n2nnnc2S(C)(=O)=O)cc1
3 | 2.1 | CS(=O)(=O)c1nnnn1C1CCCCC1
4 | 3.5 | CCCCCCS(=O)c1nnnn1-c1ccc([N+](=O)[O-])cc1 (stereo unspecified)
5 | 2.1 | CS(=O)(=O)c1nnnn1Cc1ccc([N+](=O)[O-])cc1
6 | 2.9 | CS(=O)(=O)c1nnnn1-c1cccc(C(F)(F)F)c1
7 | 2.7 | CCCS(=O)(=O)c1nnnn1-c1ccc([N+](=O)[O-])cc1
8 | 2.7 | CN(C)c1ccc(-n2nnnc2S(C)(=O)=O)cc1
9 | 4.7 | CCCCCCCCS(=O)c1nnnn1-c1ccc([N+](=O)[O-])cc1 (stereo unspecified)
10 | 4.3 | CCCCCCS(=O)(=O)c1nnnn1-c1ccc([N+](=O)[O-])cc1
11 | 1.6 | CC(=O)Oc1ccc(-n2nnnc2S(C)(=O)=O)cc1
